Target: T1, human CRF1 receptor (Homo sapiens, UniProt P34998)
T1 construct: expressed in transfected cells; host or cells: CHO cells (membrane fraction)
T1 sequence (P34998 24-415): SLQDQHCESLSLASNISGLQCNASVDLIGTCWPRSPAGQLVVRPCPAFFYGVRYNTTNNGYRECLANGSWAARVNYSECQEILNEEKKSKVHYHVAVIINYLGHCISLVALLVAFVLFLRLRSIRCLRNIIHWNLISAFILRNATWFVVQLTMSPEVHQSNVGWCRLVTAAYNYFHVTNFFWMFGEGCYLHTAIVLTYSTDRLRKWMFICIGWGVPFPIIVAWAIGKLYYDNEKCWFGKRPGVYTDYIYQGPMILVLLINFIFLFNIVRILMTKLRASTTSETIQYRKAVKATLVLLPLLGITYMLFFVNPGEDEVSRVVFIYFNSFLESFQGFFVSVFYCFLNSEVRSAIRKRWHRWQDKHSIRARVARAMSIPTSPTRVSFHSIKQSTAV
Test: Measurement of CRF binding inhibitory rate (125I-CRF receptor binding, CHO cellular membrane fraction)
Conditions: 1.5 h, at the presence of 1 μM of a test compound; human CRF1 receptor expressing CHO cellular membrane fraction, 50 pM 125I-CRF; read-out: Binding inhibitory rates (% inhibition)
Experimental: A receptor binding experiment was carried out using a human CRF1 receptor expressing CHO cellular membrane fraction and ovine CRF, [^125I]-tyr^0(^125I-CRF). 1000 nM of a test compound was incubated with 1 μg of human CRF receptor expressing CHO cellular membrane fraction and 50 pM of ^125I-CRF in a binding assay buffer (50 mM Tris-HCl, 5 mM EDTA, 10 mM MgCl2, 0.05% CHAPS, 0.1% BSA, 0.5 mM PMSF, 0.1 μg/mL pepstatin, 20 μg/mL leupeptin, pH 7.5). In addition, for measuring nonspecific binding (NSB), 0.1 μM unlabelled human Urocortin was incubated with 5 μg of human CRF receptor expressing CHO cellular membrane fraction and 50 pM of ^125I-CRF in a binding assay buffer. After a binding reaction was carried out at room temperature for 1.5 hr, the membrane was entrapped on a glass filter (UniFilter plate GF-C/Perkin Elmer) by suction filtration using a cell harvester (Perkin Elmer), and washed with ice-cooled 50 mM Tris-HCl (pH 7.5). After drying the glass filter, a liquid scintillation cocktail (Microscinti 0, Perkin Elmer) was added, and the radioactivity of ^125I-CRF remaining on a glass filter was measured using Topcount (Perkin Elmer).
(TB-SB)/(TB-NSB)×100 (SB: radioactivity when a compound is added, TB: maximum binding radioactivity, NSB: nonspecific binding radioactivity) were calculated to obtain binding inhibitory rates under the range of the presence from 0.05 nM to 10 μM of each compound. The IC50 values were calculated by using GraphPad Prism software.

Compound	inhibition at 1 µM
COc1ccc(N2CCCn3c2nc2c(Cl)ccc(C(O)(C4CC4)C4CC4)c23)c(C)n1 [Example 276, [9-Chloro-1-(6-methoxy-2-methylpyridin-3-yl)-1,2,3,4-tetrahydropyrimido[1,2-a]benzimidazol-6-yl](dicyclopropyl)methanol]	94%
CCC(OC(C)=O)c1ccc(Cl)c2nc3n(c12)CCCN3c1ccc(OC)nc1C (single isomer, unassigned; (-)) [Example 266, (−)-1-[9-Chloro-1-(6-methoxy-2-methylpyridin-3-yl)-1,2,3,4-tetrahydropyrimido[1,2-a]benzimidazol-6-yl]propyl acetate]	82%
CCN(CC)c1ccc(F)c2nc3n(c12)CCCN3c1ccc(Cl)cc1Cl [Example 365, 1-(2,4-Dichlorophenyl)-N,N-diethyl-9-fluoro-1,2,3,4-tetrahydropyrimido[1,2-a]benzimidazol-6-amine]	95%
CCC(OC(C)=O)c1ccc(Cl)c2nc3n(c12)CCCN3c1ccc(Cl)cc1Cl (single isomer, unassigned; (-)) [Example 239, (−)-1-[9-Chloro-1-(2,4-dichlorophenyl)-1,2,3,4-tetrahydropyrimido[1,2-a]benzimidazol-6-yl]propyl acetate]	90%
CCC(OC(C)=O)c1ccc(Cl)c2nc3n(c12)CCCN3c1ccc(OC)nc1C (racemic) [Example 265, 1-[9-Chloro-1-(6-methoxy-2-methylpyridin-3-yl)-1,2,3,4-tetrahydropyrimido[1,2-a]benzimidazol-6-yl]propyl acetate]	89%
CCC(OC(C)=O)c1ccc(Cl)c2nc3n(c12)CCCN3c1ccc(Cl)cc1Cl (racemic) [Example 238, 1-[9-Chloro-1-(2,4-dichlorophenyl)-1,2,3,4-tetrahydropyrimido[1,2-a]benzimidazol-6-yl]propyl acetate]	98%
Cc1cc(Cl)cc(Cl)c1N1CCn2c1nc1c(Cl)ccc(C(O)(C3CC3)C3CC3)c12 [Example 426, [8-Chloro-1-(2,4-dichloro-6-methylphenyl)-2,3-dihydro-1H-imidazo[1,2-a]benzimidazol-5-yl](dicyclopropyl)methanol]	98%
CCC(CC)c1ccc(Cl)c2nc3n(c12)CCCCN3c1cnc(N(C)C)cc1C [Example 25, 5-[10-Chloro-7-(1-ethylpropyl)-2,3,4,5-tetrahydro-1H-[1,3]diazepino[1,2-a]benzimidazol-1-yl]-N,N,4-trimethylpyridin-2-amine]	91%
CCC(O)c1ccc(Cl)c2nc3n(c12)CCCN3c1ccc(Cl)cc1Cl (stereo not drawn) [Example 112, 1-[9-Chloro-1-(2,4-dichlorophenyl)-1,2,3,4-tetrahydropyrimido[1,2-a]benzimidazol-6-yl]propan-1-ol]	95%
COc1ccc(C(O)(C2CC2)C2CC2)c2c1nc1n2CCCN1c1ccc(Cl)cc1Cl [Example 369, Dicyclopropyl[1-(2,4-dichlorophenyl)-9-methoxy-1,2,3,4-tetrahydropyrimido[1,2-a]benzimidazol-6-yl]methanol]	96%
CCC(CCO)c1ccc(Cl)c2nc3n(c12)CCCN3c1ccc(Cl)cc1Cl (stereo not drawn) [Example 450, 3-[9-Chloro-1-(2,4-dichlorophenyl)-1,2,3,4-tetrahydropyrimido[1,2-a]benzimidazol-6-yl]pentan-1-ol]	98%

Same assay, conditions: at the presence of 1 μM of a test compound; human CRF1 receptor expressing CHO cellular membrane fraction, 50 pM 125I-CRF

Compound	Binding inhibitory rates (% inhibition)
CCC(OC(C)=O)c1ccc(Cl)c2nc3n(c12)CCCN3c1ccc(Cl)cc1Cl (single isomer, unassigned; (+)) [Example 240, (+)-1-[9-Chloro-1-(2,4-dichlorophenyl)-1,2,3,4-tetrahydropyrimido[1,2-a]benzimidazol-6-yl]propyl acetate]	97%
CCC(OC(C)=O)c1ccc(Cl)c2nc3n(c12)CCCN3c1ccc(OC)nc1C (single isomer, unassigned; (+)) [Example 267, (+)-1-[9-Chloro-1-(6-methoxy-2-methylpyridin-3-yl)-1,2,3,4-tetrahydropyrimido[1,2-a]benzimidazol-6-yl]propyl acetate]	96%
CCC(O)c1ccc(Cl)c2nc3n(c12)CCCN3c1ccc(Cl)cc1Cl (single isomer, unassigned; (+)) [Example 439, (+)-1-[9-Chloro-1-(2,4-dichlorophenyl)-1,2,3,4-tetrahydropyrimido[1,2-a]benzimidazol-6-yl]propan-1-ol]	84%

Same assay, conditions: human CRF1 receptor expressing CHO cellular membrane fraction, 50 pM 125I-CRF, 0.05 nM to 10 μM of compound; read-out: IC50 values (CRF binding inhibition)

Compound	IC50
COc1ccc(N2CCCn3c2nc2c(Cl)ccc(C(OCC(F)(F)F)C4CC4)c23)c(Cl)c1 (stereo not drawn) [Example 468, 9-Chloro-1-(2-chloro-4-methoxyphenyl)-6-[cyclopropyl(2,2,2-trifluoroethoxy)methyl]-1,2,3,4-tetrahydropyrimido[1,2-a]benzimidazole]	< 1000 nM

— patent publication US8901141B2, “Tricyclic compounds having corticotropin-releasing factor antagonistic activity and pharmaceutical compositions containing them” (Takeda Pharmaceutical Company, Limited, priority 2008, dated 2014)
